Converted amounts (≈) assume the structure as drawn. Read-outs that look alike come from different tables or passages of the source.
Columns and labels:
[1] = test system: primate polyomavirus (SV40); experiment: microbe, parasite or virus in culture; type: cell-based, simian polyomavirus SV40; conditions: Polyomavirus sp., BSC-1, in Primates
Vaccinia Virus (WR) = type: in vivo, mice; conditions: after 20 days
in vitro = conditions: African green monkey
Orf virus (NZ2) [2] = experiment: microbe, parasite or virus in culture; type: cell-based
Cowpox virus (Brighton) [3] = type: cell-based
[4] = test system: Vaccinia virus (Western Reserve) and recombinant viruses harboring the A314T, A684V or A314T+A684V mutations; type: cell-based
murine polyomavirus = experiment: microbe, parasite or virus in culture; type: cell-based; conditions: Alphapolyomavirus muris, UC1, UC1B
Vaccinia virus = type: cell-based
[5] = test system: Herpes simplex virus-1 (KOS and TK- KOS ACVr); type: cell-based
[6] = test system: Herpes simplex virus-2 (G); type: cell-based
HSV-2 (Lyons) = test system: HSV-2 (Lyons); set-up: species or system mice; conditions: mouse, in vivo, sc
[7] = test system: vaccinia virus (Lederle strain); experiment: microbe, parasite or virus in culture; type: cell-based; conditions: Orthopoxvirus vaccinia, HEL
Orf virus (NZ2) [8] = type: cell-based
HSV-1 (KOS) = test system: HSV-1 (KOS); set-up: species or system mice; conditions: mouse, in vivo, sc
Cowpox virus (Brighton) [9] = experiment: microbe, parasite or virus in culture; type: cell-based

Nc1ncn(C[C@@H](CO)OCP(=O)(O)O)c(=O)n1 [Compound 3, (S)-1-[3-hydroxy-2-(Phosphonomethoxy)propyl]-5-azacytosine]
EC50 ([1]; read-out: antiviral activity (EC50) SV40 PML-1 strain EK): 3.19 µg/mL (≈ 11.4 µM) | EC50 ([1]; read-out: antiviral activity (EC50) SV40 PML-2 strain DAR): 3.81 µg/mL (≈ 13.6 µM) | EC50 ([1]; read-out: antiviral activity (EC50) SV40 strain A2895): 3.22 µg/mL (≈ 11.5 µM) | survival, Vaccinia Virus (WR) mice model (Vaccinia Virus (WR)): 100% | CC50 (in vitro): 129 µg/mL (≈ 460 µM) | activity against Orf virus (NZ2) in HEL cells (Orf virus (NZ2) [2]): significant activity | EC50 (Orf virus (NZ2) [2]; Orf virus, HEL, read-out: EC50 Orf virus NZ2): 0.15 µg/mL (≈ 0.535 µM) | activity against Cowpox virus (Brighton) in PHKs (Cowpox virus (Brighton) [3]): significant activity | EC50 Vaccinia virus (Western Reserve) wild-type [4]: 1.58 µg/mL (≈ 5.64 µM) | EC50 recombinant vaccinia virus 314 + 684 [4]: 10.8 µg/mL | EC50 recombinant vaccinia virus 684 [4]: 6.88 µg/mL | EC50 recombinant vaccinia virus A314T [4]: 4.1 µg/mL | EC50 (murine polyomavirus; read-out: antiviral activity (EC50) 2PTA2): 3.35 µg/mL (≈ 12 µM) | EC50 (murine polyomavirus; read-out: antiviral activity (EC50) LID-1): 4.98 µg/mL (≈ 17.8 µM) | EC50 (murine polyomavirus; read-out: antiviral activity (EC50) MN/RDE Toronto): 1.94 µg/mL (≈ 6.92 µM) | EC50 (murine polyomavirus; read-out: antiviral activity (EC50) PTA): 3.89 µg/mL (≈ 13.9 µM) | activity against Vaccinia virus in E6SM cell cultures (Vaccinia virus): significant activity | activity against Herpes simplex virus-1 (KOS and TK- KOS ACVr) in E6SM cell cultures [5]: significant activity | activity against Herpes simplex virus-2 (G) in E6SM cell cultures [6]: significant activity | survival rate, HSV-2 (Lyons) model (HSV-2 (Lyons)): 100% | EC50 ([7]; 2 h, read-out: EC50 Vaccinia (Lederle strain), Treatment from 2 h till end of experiment): 2 µg/mL (≈ 7.14 µM) | EC50 ([7]; read-out: EC50 Vaccinia (Lederle strain), Pretreatment (−16 hours)): 1.59 µg/mL (≈ 5.67 µM) | EC50 ([7]; read-out: EC50 Vaccinia (Lederle strain), Treatment 2-4 hours): 5 µg/mL (≈ 17.8 µM) | EC50 ([7]; read-out: EC50 Vaccinia (Lederle strain), Treatment 2-6 hours): 3.98 µg/mL (≈ 14.2 µM) | EC50 ([7]; read-out: EC50 Vaccinia (Lederle strain), Treatment 2-8 hours): 6.3 µg/mL (≈ 22.5 µM) | activity against Orf virus (NZ2) in PHKs (Orf virus (NZ2) [8]): significant activity | survival rate, HSV-1 (KOS) mice (HSV-1 (KOS)): 100% | activity against Cowpox virus (Brighton) in HEL cells (Cowpox virus (Brighton) [9]): significant activity | EC50 (Cowpox virus (Brighton) [9]; Cowpox virus, HEL, read-out: EC50 Cowpox virus Brighton): 4.72 µg/mL (≈ 16.8 µM)

Reference: US8153787B2 (priority 2005, dated 2012)
